# Data reported in patent US20050032766A1, “Use of estrogenic compounds as anti-fungal agents” (priority 2003, published 2005).
# Legend:
# Type in all cases: cell-based
# C. albicans [1] = test: Growth inhibition of C. albicans strains by 2ME2, colony counts at 5 and 12 hours (Example 1); conditions: for Number of Treated Colonies at 5 hrs / Number of Treated Colonies at 12 hrs / Percentage of Inhibition at 12 hrs: 3 μM 2ME2
# Description: (§1) The ability of 3 μM 2ME2 to inhibit the growth of ten different strains of C. albicans was investigated. Nine of these strains were clinically isolated and maintained by interval of subculture with Sabouraouds dextrose agar and storage at 4° C.; the other strain was purchased from ATCC. Yeast cells were cultured with nitrogen broth devoid of mammalian steroid hormones in the presence and absence of 2ME2. At 5 and 12 hours after the addition of 2ME2, a small volume of control and treated cultures was drawn and plated on Sabouraouds dextrose agar plates. The plates were placed at 37° C. and the colonies counted 24 hours later. Table I illustrates that micromolar concentrations 2ME2 are able to suppress the growth of 9/10 strains of C. albicans tested here.
# C. albicans [2] = test: C. albicans colony counts with 17β-estradiol in presence and absence of 2ME2 (Example 3); conditions: 5 hours; for Number of Colonies treated with estradiol and 2ME2: 1 μM 2ME2 with 1 nM 17β-estradiol; for Percentage of Inhibition: 1 μM 2ME2 with 1 nM 17β-estradiol vs estradiol alone; for Number of Colonies treated with estradiol: 1 nM 17β-estradiol alone
# Description: as §1
# In a separate experiment, 1 nM 17β-estradiol was added to the cultures of C. albicans cells in the presence and absence of 1 μM 2ME2 and the number of colonies of yeast cells cultured for 5 hours with the above steroids were counted as previously described.
# C. albicans [3] = test: Repeat of the growth inhibition test, colony counts after 5 hours of culture (Example 2)
# Description: as §1
# The experiment described in Example 1 was repeated with 4 of the above strains and 3 newly isolated C. albicans trains. The following counts were taken from yeast cultures grown for 5 hours in the nitrogen base media in the presence and absence of micromolar concentrations 2ME2.
# [4] = strain 2, micromolar concentrations 2ME2
# [5] = strain 5, micromolar concentrations 2ME2
# [6] = strain 8, micromolar concentrations 2ME2
# [7] = strain 10, micromolar concentrations 2ME2
# [8] = strain 11, micromolar concentrations 2ME2
# [9] = strain 12, micromolar concentrations 2ME2
# [10] = strain ATCC, micromolar concentrations 2ME2
smiles,measurement,setting,value
"COc1cc2c(cc1O)CC[C@@H]1[C@@H]2CC[C@]2(C)[C@@H](O)CC[C@@H]12 [2ME2, 2-Methoxyestradiol]",strains of C. albicans whose growth is suppressed,"C. albicans [1]; micromolar concentrations 2ME2, ten strains tested",9/10
same,Number of Treated Colonies at 5 hrs,C. albicans [1]; strain 1,16
same,Number of Treated Colonies at 12 hrs,C. albicans [1]; strain 1,50
same,Percentage of Inhibition at 12 hrs,C. albicans [1]; strain 1,57%
same,Number of Treated Colonies at 5 hrs,C. albicans [1]; strain 2,51
same,Number of Treated Colonies at 12 hrs,C. albicans [1]; strain 2,>400
same,Number of Treated Colonies at 5 hrs,C. albicans [1]; strain 3,14
same,Number of Treated Colonies at 12 hrs,C. albicans [1]; strain 3,86
same,Percentage of Inhibition at 12 hrs,C. albicans [1]; strain 3,>78%
same,Number of Treated Colonies at 5 hrs,C. albicans [1]; strain 4,17
same,Number of Treated Colonies at 12 hrs,C. albicans [1]; strain 4,113
same,Percentage of Inhibition at 12 hrs,C. albicans [1]; strain 4,>72%
same,Number of Treated Colonies at 5 hrs,C. albicans [1]; strain 5,14
same,Number of Treated Colonies at 12 hrs,C. albicans [1]; strain 5,85
same,Percentage of Inhibition at 12 hrs,C. albicans [1]; strain 5,>79%
same,Number of Treated Colonies at 5 hrs,C. albicans [1]; strain 6,32
same,Number of Treated Colonies at 12 hrs,C. albicans [1]; strain 6,131
same,Percentage of Inhibition at 12 hrs,C. albicans [1]; strain 6,>67%
same,Number of Treated Colonies at 5 hrs,C. albicans [1]; strain 7,13
same,Number of Treated Colonies at 12 hrs,C. albicans [1]; strain 7,148
same,Percentage of Inhibition at 12 hrs,C. albicans [1]; strain 7,>63%
same,Number of Treated Colonies at 5 hrs,C. albicans [1]; strain 8,14
same,Number of Treated Colonies at 12 hrs,C. albicans [1]; strain 8,98
same,Percentage of Inhibition at 12 hrs,C. albicans [1]; strain 8,>75%
same,Number of Treated Colonies at 5 hrs,C. albicans [1]; strain 9,15
same,Number of Treated Colonies at 12 hrs,C. albicans [1]; strain 9,90
same,Percentage of Inhibition at 12 hrs,C. albicans [1]; strain 9,>77%
same,Number of Treated Colonies at 5 hrs,C. albicans [1]; strain ATCC,15
same,Number of Treated Colonies at 12 hrs,C. albicans [1]; strain ATCC,67
same,Percentage of Inhibition at 12 hrs,C. albicans [1]; strain ATCC,70%
same,Number of Colonies treated with estradiol and 2ME2,C. albicans [2]; strain 2,64 ± 2
same,Percentage of Inhibition,C. albicans [2]; strain 5,43%
same,Number of Colonies treated with estradiol and 2ME2,C. albicans [2]; strain 5,39 ± 4
same,Percentage of Inhibition,C. albicans [2]; strain 8,48%
same,Number of Colonies treated with estradiol and 2ME2,C. albicans [2]; strain 8,25 ± 3
same,Percentage of Inhibition,C. albicans [2]; strain 10,56%
same,Number of Colonies treated with estradiol and 2ME2,C. albicans [2]; strain 10,23 ± 5
same,Percentage of Inhibition,C. albicans [2]; strain 11,31%
same,Number of Colonies treated with estradiol and 2ME2,C. albicans [2]; strain 11,55 ± 6
same,Percentage of Inhibition,C. albicans [2]; strain 12,53%
same,Number of Colonies treated with estradiol and 2ME2,C. albicans [2]; strain 12,56 ± 1
same,Percentage of Inhibition,C. albicans [2]; strain ATCC,55%
same,Number of Colonies treated with estradiol and 2ME2,C. albicans [2]; strain ATCC,28 ± 12
same,Percentage of Inhibition,C. albicans [3]; [4],70%
same,Treated Colonies,C. albicans [3]; [4],26 ± 7
same,Percentage of Inhibition,C. albicans [3]; [5],41%
same,Treated Colonies,C. albicans [3]; [5],58 ± 7
same,Percentage of Inhibition,C. albicans [3]; [6],50%
same,Treated Colonies,C. albicans [3]; [6],59 ± 7
same,Percentage of Inhibition,C. albicans [3]; [7],0%
same,Treated Colonies,C. albicans [3]; [7],51 ± 19
same,Percentage of Inhibition,C. albicans [3]; [8],14%
same,Treated Colonies,C. albicans [3]; [8],74 ± 16
same,Percentage of Inhibition,C. albicans [3]; [9],50%
same,Treated Colonies,C. albicans [3]; [9],77 ± 12
same,Percentage of Inhibition,C. albicans [3]; [10],44%
same,Treated Colonies,C. albicans [3]; [10],36 ± 6
"C[C@]12CC[C@@H]3c4ccc(O)cc4CC[C@H]3[C@@H]1CC[C@@H]2O [estradiol, 17β-estradiol, reference compound]",Number of Colonies treated with estradiol,C. albicans [2]; strain 2,58 ± 5
same,Number of Colonies treated with estradiol,C. albicans [2]; strain 5,69 ± 13
same,Number of Colonies treated with estradiol,C. albicans [2]; strain 8,48 ± 7
same,Number of Colonies treated with estradiol,C. albicans [2]; strain 10,52 ± 2
same,Number of Colonies treated with estradiol,C. albicans [2]; strain 11,80 ± 1
same,Number of Colonies treated with estradiol,C. albicans [2]; strain 12,120
same,Number of Colonies treated with estradiol,C. albicans [2]; strain ATCC,63 ± 8
